pIC50: −log10 of the molar value. Structures can show the parent of a compound that is named as a salt.
Target: human NK1 receptor (Homo sapiens, UniProt P25103)
Experiment: NK1 receptor test by the methods of WO 93/01165 (pages 36 to 39)
Assay type: binding
Description: The exemplified compounds of this invention were tested by the methods set out at pages 36 to 39 of International Patent Specification No. WO 93/01165.

human NK1 receptor, sequence (P25103 whole entry): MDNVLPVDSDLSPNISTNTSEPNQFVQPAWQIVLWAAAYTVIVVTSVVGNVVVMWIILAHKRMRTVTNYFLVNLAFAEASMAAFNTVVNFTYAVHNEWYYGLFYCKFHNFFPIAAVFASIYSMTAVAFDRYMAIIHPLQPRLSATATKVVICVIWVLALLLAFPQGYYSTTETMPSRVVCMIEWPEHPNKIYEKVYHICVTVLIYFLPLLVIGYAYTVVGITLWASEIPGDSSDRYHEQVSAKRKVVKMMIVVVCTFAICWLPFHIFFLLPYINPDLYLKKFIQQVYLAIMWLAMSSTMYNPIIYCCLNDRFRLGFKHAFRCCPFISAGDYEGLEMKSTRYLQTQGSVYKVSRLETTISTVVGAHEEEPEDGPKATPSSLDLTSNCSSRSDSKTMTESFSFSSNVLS

pIC50	SMILES
9.89	Fc1ccc(C2NCCCC2NCc2cc(-n3nnnc3C(F)(F)F)ccc2OC2CC2)cc1 (racemic) [Example 2, (±)-(2 R3 R 2 S3 S)-N-({2-Cyclopropoxy-5-[5-(trifluoromethyl)tetrazol-1-yl]phenyl}methyl)-2-(4-fluorophenyl)piperidin-3-amine Dihydrochloride]
10.10	FC(F)(F)c1nnnn1-c1ccc(OC2CC2)c(CN[C@H]2CCCN[C@H]2c2ccccc2)c1 [Example 1, (2 S3 S)-N-({2-Cyclopropoxy-5-[5-(trifluoromethyl)tetrazol-1-yl]phenyl}methyl)-2-phenylpiperidin-3-amine Dihydrochloride]
